# In patent publication US12486228B2, “N-substituted indoles and use as allosteric modulators of cannabinoid receptors” (priority 2018, dated 2025):
# Where two headings read alike, the source gives them in different places.
# Experiments:
# Assay in all cases: cell-based
# CB2 [1] = biological target: T1, CB2 (Homo sapiens, UniProt P34972); conditions: CB2, agonist mode; for EC50: read-out: CB2 Agonist mode β-Arrestin EC50; for Emax: read-out: CB2 Agonist mode β-Arrestin Emax
# CB2 [2] = biological target: T1, CB2; conditions: CB2, agonist mode; for EC50: read-out: CB2 Agonist mode cAMP EC50; for Emax: read-out: CB2 Agonist mode cAMP Emax
# hCB1 [3] = biological target: T2, hCB1 (Homo sapiens, UniProt P21554); design: host or cells: CHO-K1 PathHunter
# T2 sequence (P21554 whole entry): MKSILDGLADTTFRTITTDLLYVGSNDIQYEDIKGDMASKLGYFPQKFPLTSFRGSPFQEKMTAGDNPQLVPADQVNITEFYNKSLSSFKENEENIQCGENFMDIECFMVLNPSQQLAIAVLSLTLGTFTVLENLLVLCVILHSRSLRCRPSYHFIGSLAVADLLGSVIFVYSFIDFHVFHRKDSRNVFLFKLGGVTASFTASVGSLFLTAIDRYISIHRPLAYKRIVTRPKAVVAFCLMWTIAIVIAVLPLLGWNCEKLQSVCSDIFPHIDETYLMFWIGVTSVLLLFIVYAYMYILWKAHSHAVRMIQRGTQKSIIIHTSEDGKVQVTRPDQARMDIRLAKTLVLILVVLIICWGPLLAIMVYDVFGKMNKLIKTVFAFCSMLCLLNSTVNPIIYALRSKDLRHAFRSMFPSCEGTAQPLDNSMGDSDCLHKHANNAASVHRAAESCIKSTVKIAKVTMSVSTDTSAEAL
# Protocol: PathHunter CB1 β-Arrestin Assay: Chinese hamster ovary K1 (CHO-K1)-PathHunter hCB1 β-arrestin cells (DiscoveRx, Fremont, CA) were seeded at 5000 cells/well in 384-well plates 24 h before use and incubated at 37° C., 5% CO2. Compounds were dissolved in dimethyl sulfoxide (DMSO) and diluted in optimized cell culture (OCC) media. Agonist EC80 was determined directly from an agonist dose—response curve (data not shown). […] Five microliters of allosteric modulator or vehicle solution was added to each well at the appropriate concentrations and incubated for 30 min. Five microliters of agonist was then added to each well followed by a 90 min incubation. Fifteen microliters of detection reagent was then added followed by further 60 min incubation at room temperature. Chemiluminescence was measured on a standard luminescence plate reader as relative light units (RLU). Basal RLU was defined as zero. […] Data were analyzed using the fourparameter variable-slope and allosteric EC50 shift nonlinear regression equations in Prism 5.0 (GraphPad, San Diego, CA).
# hCB1 [4] = biological target: T2, hCB1; design: host or cells: CHO-K1
# Protocol: HitHunter cAMP assay: Inhibition of forskolin-stimulated cAMP was determined using the DiscoveRx HitHunter assay in hCB1R CHO-K1 cells. Cells (20,000 cells/well in low-volume 96 well plates) were incubated overnight in Opti-MEM (Invitrogen) containing 1% FBS at 37° C. and 5% CO2. Following this, Opti-MEM media was removed and replaced with cell assay buffer (DiscoveRx) and cells were co-treated at 37° C. with 10 μM forskolin and hCB1R ligands (0.10 nM-10 μM) for 30 min or 90 min cAMP antibody solution and cAMP working detection solutions were then added to cells according to the manufacturer's directions (DiscoveRx®) and cells were incubated for 60 min at room temperature. cAMP solution A was added according to the manufacturer's directions (DiscoveRx®) and cells were incubated for an additional 60 min at room temperature before chemiluminescence was measured on a Cytation 5 plate reader (top read, gain 200, integration time 10,000 ms).
# [5] = CB1, PAM mode, read-out: CB1 PAM mode β-Arrestin EC50
# [6] = CB1, agonist mode, read-out: CB1 Agonist mode β-Arrestin EC50
# [7] = read-out: CB1 Agonist mode β-Arrestin Emax
# [8] = read-out: CB1 PAM mode β-Arrestin Emax
# [9] = CB1, PAM mode, read-out: CB1 PAM mode cAMP EC50
# [10] = CB1, agonist mode, read-out: CB1 Agonist mode cAMP EC50
# [11] = read-out: CB1 Agonist mode cAMP Emax, CB1, agonist mode
# [12] = read-out: CB1 PAM mode cAMP Emax, CB1, PAM mode
# T1 sequence (P34972 whole entry, species assumed): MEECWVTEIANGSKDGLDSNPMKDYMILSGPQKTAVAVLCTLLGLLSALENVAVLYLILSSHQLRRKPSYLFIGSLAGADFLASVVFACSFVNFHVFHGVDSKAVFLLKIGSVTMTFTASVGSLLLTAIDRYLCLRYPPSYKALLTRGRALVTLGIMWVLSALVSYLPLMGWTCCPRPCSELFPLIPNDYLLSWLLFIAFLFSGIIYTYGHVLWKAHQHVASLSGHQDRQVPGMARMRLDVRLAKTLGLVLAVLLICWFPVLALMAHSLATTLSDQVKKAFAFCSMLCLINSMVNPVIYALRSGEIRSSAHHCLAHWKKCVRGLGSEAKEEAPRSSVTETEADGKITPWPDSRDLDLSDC
SMILES,EC50 (CB2 [1]) [nM],Emax (CB2 [1]) [%],EC50 (CB2 [2]) [nM],Emax (CB2 [2]) [%],EC50 (hCB1 [3]; [5]) [nM],EC50 (hCB1 [3]; [6]) [nM],Emax (hCB1 [3]; [7]) [%],Emax (hCB1 [3]; [8]) [%],EC50 (hCB1 [4]; [9]) [nM],EC50 (hCB1 [4]; [10]) [nM],Emax (hCB1 [4]; [11]) [%],Emax (hCB1 [4]; [12]) [%],"CB1 PAM mode β-Arrestin Emax (hCB1 [3]; CB1, PAM mode)","CB1 Agonist mode β-Arrestin Emax (hCB1 [3]; CB1, agonist mode)","CB1 PAM mode cAMP Emax (hCB1 [4]; CB1, PAM mode)","CB1 Agonist mode cAMP Emax (hCB1 [4]; CB1, agonist mode)",EC50 (hCB1 [3]) [nM],"EC50 (hCB1 [4]; CB1 PAM mode cAMP EC50, CB1, PAM mode) [nM]"
"O=C(O)CC=C(c1ccccc1)c1cn(-c2ccccc2)c2ccccc12 (mixture of isomers) [Compound 16, (E and Z)-4-Phenyl-4-(1-phenyl-1H-indol-3-yl)but-3-enoic acid]",> 10000,0,359,80,> 10000,> 10000,0,0,934,689,94,104,–,–,–,–,–,–
"CC(CC(c1ccccc1)c1cn(-c2ccccc2)c2ccccc12)C(=O)O (racemic) [Compound 11, (±)-2-Methyl-4-phenyl-4-(1-phenyl-1H-indol-3-yl)butanoic acid]",–,–,–,–,> 10000,> 10000,0,0,1890,1260,62,100,–,–,–,–,–,–
"CC(CC(c1ccccc1)c1cn(-c2ccccc2)c2ccccc12)C(=O)O (racemic) [Compound 12, (±)-2-Methyl-4-phenyl-4-(1-phenyl-1H-indol-3-yl)butanoic acid]",–,–,–,–,> 10000,> 10000,–,–,704,1060,–,–,(0) %,(0) %,(101) %,(60) %,–,–
"O=C(O)C(c1ccccc1)c1cn(-c2ccccc2)c2ccccc12 (centres unmarked) [Compound 7, 2-Phenyl-2-(1-phenyl-1H-indol-3-yl)acetic acid]",–,–,–,–,> 10000,–,–,0,4180,–,–,78.9,–,–,–,–,–,–
"O=C(O)CC(c1ccccc1)c1cn(-c2ccccc2)c2ccccc12 (centres unmarked) [Compound 8, 3-Phenyl-3-(1-phenyl-1H-indol-3-yl)propanoic acid]",–,–,–,–,> 10000,–,–,0,509,–,–,144,–,–,–,–,–,–
"O=C(O)C(C(=O)O)C(c1ccccc1)c1cn(-c2ccccc2)c2ccccc12 (centres unmarked) [Compound 9, 2-(Phenyl(1-phenyl-1H-indol-3-yl)methyl)malonic acid]",–,–,–,–,> 10000,–,–,0,1280,–,–,158,–,–,–,–,–,–
"CCOC(=O)C(C(=O)O)C(c1ccccc1)c1cn(-c2ccccc2)c2ccccc12 (centres unmarked) [Compound 10, 3-Ethoxy-3-oxo-2-(phenyl(1-phenyl-1H-indol-3-yl)methyl)propanoic acid]",–,–,–,–,> 10000,–,–,4.59,> 10000,–,–,6.98,–,–,–,–,–,–
"CCOC(=O)CCC(c1ccccc1)c1cn(-c2ccccc2)c2ccccc12 (centres unmarked) [Compound 13, Ethyl 4-phenyl-4-(1-phenyl-1H-indol-3-yl)butanoate]",–,–,–,–,> 10000,–,–,0,> 10000,–,–,0,–,–,–,–,–,–
"O=C(O)/C=C\C(c1ccccc1)c1cn(-c2ccccc2)c2ccccc12 (centres unmarked) [Compound 15, (Z)-4-phenyl-4-(1-phenyl-1H-indol-3-yl)but-2-enoic acid]",> 10000,0,1050,81,> 10000,> 10000,0,0,639,506,86,84,–,–,–,–,–,–
"Cc1ccc2c(C(CCC(=O)O)c3ccccc3)cn(-c3ccccc3)c2c1 (centres unmarked) [Compound 17, 4-(6-Methyl-1-phenyl-1H-indol-3-yl)-4-phenylbutanoic acid]",> 10000,0,1000,74,> 10000,> 10000,0,0,1440,1250,73,93,–,–,–,–,–,–
"O=C(O)CCC(c1ccccc1)c1cn(Cc2ccccc2)c2ccccc12 (centres unmarked) [Compound 18, 4-(1-Penzyl-1H-indol-3-yl)-4-phenylbutanoic acid]",> 10000,0,407,64,> 10000,> 10000,0,0,610,1040,87,97,–,–,–,–,–,–
"O=C(O)CCCC(c1ccccc1)c1cn(-c2ccccc2)c2ccccc12 (centres unmarked) [Compound 19, 5-Phenyl-5-(1-phenyl-1H-indol-3-yl)pentanoic acid]",> 10000,0,654,95,> 10000,> 10000,0,0,1420,827,98,98,–,–,–,–,–,–
"O=C(O)CCCCC(c1ccccc1)c1cn(-c2ccccc2)c2ccccc12 (centres unmarked) [Compound 20, 6-Phenyl-6-(1-phenyl-1H-indol-3-yl)hexanoic acid]",> 10000,0,505,98,> 10000,> 10000,0,0,1090,355,96,96,–,–,–,–,–,–
"OC(c1ccccc1)c1cn(-c2ccccc2)c2ccccc12 (centres unmarked) [Compound 30, Phenyl(1-phenyl-1H-indol-3-yl)methanol]",–,–,–,–,> 10000,–,–,0,> 10000,–,–,0,–,–,–,–,–,–
"OCC(c1ccccc1)c1cn(-c2ccccc2)c2ccccc12 (centres unmarked) [Compound 31, 2-Phenyl-2-(1-phenyl-1H-indol-3-yl)ethan-1-ol]",–,–,–,–,> 10000,–,–,0,> 10000,–,–,1.31,–,–,–,–,–,–
"OCCC(c1ccccc1)c1cn(-c2ccccc2)c2ccccc12 (centres unmarked) [Compound 32, 3-Phenyl-3-(1-phenyl-1H-indol-3-yl)propan-1-ol]",–,–,–,–,> 10000,–,–,0,> 10000,–,–,27.1,–,–,–,–,–,–
"OCCCC(c1ccccc1)c1cn(-c2ccccc2)c2ccccc12 (centres unmarked) [Compound 34, 4-Phenyl-4-(1-phenyl-1H-indol-3-yl)butan-1-ol]",–,–,–,–,> 10000,–,–,5,> 10000,–,–,0,–,–,–,–,–,–
"OCC(c1ccccc1)c1cn(-c2ccccc2)c2ccc(Cl)cc12 (centres unmarked) [Compound 35, 2-(5-Chloro-1-phenyl-1H-indol-3-yl)-2-phenylethan-1-ol]",–,–,–,–,> 10000,–,–,0,> 10000,–,–,2.81,–,–,–,–,–,–
"NC(=O)CC(c1ccccc1)c1cn(-c2ccccc2)c2ccccc12 (centres unmarked) [Compound 38, 3-Phenyl-3-(1-phenyl-1H-indol-3-yl)propanamide]",–,–,–,–,> 10000,–,–,0,> 10000,–,–,27.1,–,–,–,–,–,–
"c1ccc(C(Cc2nnn[nH]2)c2cn(-c3ccccc3)c3ccccc23)cc1 (centres unmarked) [Compound 39, 1-Phenyl-3-(1-phenyl-2-(1H-tetrazol-5-yl)ethyl)-1H-indole]",–,–,–,–,> 10000,–,–,0,423,–,–,94,–,–,–,–,–,–
"O=C(c1ccccc1)c1cn(-c2ccccc2)c2ccccc12 [Compound 40, Phenyl(1-phenyl-1H-indol-3-yl)methanone]",–,–,–,–,–,–,–,0.273,–,–,–,11.7,–,–,–,–,> 10000,> 10000
